One compound from patent US12285012B2, “Compositions comprising pyridine carboxylate herbicides with acetolactate synthase (ALS) inhibitor herbicides” (Corteva Agriscience LLC, priority 2018, dated 2025) can be followed below.

Values joined by “and” are separate entries in the source; they are usually repeats but may differ in a detail not shown here. Identical values can stand only once.

Common to all, as to assay: Greenhouse postemergence herbicidal effect
Assay type in all cases: in vivo

Experiment [1] concerns poinsettia (EPHHL, Euphorbia heterophylla). Put shortly:
(§1)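 Visual rating, 0 (no injury) to 100% (complete kill), taken 20–22 d after treatment relative to solvent-sprayed controls. Pyridine carboxylate (g ae/ha) combined with ALS herbicide (g ai/ha), applied by track sprayer at 187 L/ha with 1.25% v/v oil adjuvant and cloquintocet-mexyl safener.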

Experiment [2] deals with giant foxtail (SETFA, Setaria faberi). Put shortly: (§2)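 Plants at second or third true leaf stage, greenhouse-grown (~14 h photoperiod, about 23/22° C), sprayed at 187 L/ha with pyridine carboxylate herbicide (g ae/ha; with cloquintocet-mexyl safener unless noted) alone or plus ALS herbicide (g ai/ha) in 1.25% v/v oil adjuvant. Visual injury, 0 to 100% versus solvent-blank controls, after 20-22 d.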

The subject of experiment [3] is blackgrass (ALOMY, Alopecurus myosuroides). Conditions: Compound A 10 g/ha; safener mefenpyr-diethyl. Put shortly:
as §2

Experiment [4] has as its system broadleaf signalgrass (BRAPP, Brachiaria platyphylla). Conditions: Compound A 10 g/ha. In outline:
as §1

Experiment [5] concerns barnyard grass (ECHCG, Echinochloa crus-galli). Conditions: Compound A 10 g/ha. Put shortly:
as §2

The subject of experiment [6] is small-flower flatsedge (CYPDI, Cyperus difformis). Conditions: Compound A 10 g/ha. In outline:
as §1

Experiment [7] concerns spring rape (BRSNN, Brassica napus). In outline:
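Injury was rated visually after 20-22 d on a 0 (none) to 100% (complete kill) scale relative to solvent-sprayed controls, with sub-irrigation to avoid wash-off. Rates were given in g ae/ha or g ai/ha depending on component.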

Where [8] appears, read: Compound A 10 g/ha, safener mefenpyr-diethyl.

Turning to `N#CCOC(=O)c1nc(-c2ccc3cc[nH]c3c2F)c(F)c(N)c1Cl` [Compound A, cyanomethyl 4-amino-3-chloro-5-fluoro-6-(7-fluoro-1H-indol-6-yl)pyridine-2-carboxylate], the “% visual injury, Obs” value in experiment [1] (10 g/ha) was 83%; in experiment [2] (10 g/ha), 0%; in experiment [2] (setting [8]), 80%; in experiment [3] it was 13%; in experiment [5] (safener mefenpyr-diethyl), 85%; in experiment [7] (10 g/ha), 73% and 70% and 60%. For the same compound, the “% visual injury, Obs” value is given as 60% in experiment [7] (BRSNN, Compound A 10 g/ha); 55% in experiment [7] (Compound A 10 g/ha); 78% in experiment [7] (setting [8]). The “% visual injury” value in experiment [1] (Compound A 10 g/ha) stood at 97%; in experiment [7] (Compound A 10 g/ha) it was 65%. In addition, the “SETFA % visual injury Obs” value in experiment [2] (setting [8]) is 80%. Further, in experiment [3], the “ALOMY % visual injury Obs” value worked out at 13%. Moreover, the “% visual injury Obs” value in experiment [4] was determined as 68%; in experiment [5], 85%; in experiment [6] it was 72%; in experiment [7] (Compound A 10 g/ha), 60%. Moreover, the “ECHCG % visual injury Obs” value in experiment [5] (safener mefenpyr-diethyl) stood at 85%. Besides, the “Obs % visual injury” value in experiment [7] (BRSNN, Compound A 10 g/ha) was 55%; in experiment [7] (BRSNN, Compound A 10 g/ha (Table 65)) it was 55%. The entries for the “BRSNN % visual injury Obs” value in experiment [7] (Compound A 10 g/ha (Examples 62-63)) and in experiment [7] (setting [8]) were 55% and 78%, respectively.
